14 compounds from patent publication EP1614683B1, “Indazole compounds and pharmaceutical compositions for inhibiting protein kinases, and methods for their use” (priority 1999, dated 2001) can be followed below.

“And” between values parts separate entries of the source, which are not always exact repeats. Identical values can stand only once. Like-named read-outs stand apart in the source and are kept apart here.

A short description of one series: in vitro. The class given is in vitro ADME, human. The note with it: human, microsomes, 2 h, 5 µM. The essentials:
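HLM diluted to 5 mg/mL in 100 mM KPO4, preincubated 10 min at 37 °C with NADPH-regenerating system. Compound (5 µM final) incubated at 37 °C in triplicate, sampled at 0 and 2 h into ice-cold acetonitrile, then LC-MS analysis.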

Series [1] addresses T1, unphosphorylated VEGF-R2Δ50 (Homo sapiens, UniProt P35968, DEL940-989/E990V). The note with it: Table 1; for FLVK ** (% inhibition): compound concentration 50 nM; for Ki: read-out: FLVK ** (Ki).
Series [2] relates to human umbilical vein endothelial cells (HUVEC). In words: HUVEC proliferation assay (VEGF-stimulated, MTT). In kind it is cell-based. As to conditions: read-out: HUVEC IC50.
Series [3] has as its target T2, CDK4/Cyclin D3 complex (Homo sapiens, UniProt P11802).
A further series addresses LCK tyrosine kinase (Homo sapiens, UniProt P06239, C224D/P223M). In words: LCK spectrophotometric assay. The class given is biochemical. On the procedure:
The spectrophotometric assay was carried out as described above for VEGF-R2, except for the following changes in concentration: LCK = 60 nM, MgCl2 = 0 mM, poly(E4Y1) = 20 mM.

The target in series [4] is T3, phosphorylated Tie-2 (aa 775-1122) (Homo sapiens, UniProt Q02763).
T3 construct: 4 to 12 nM phosphorylated Tie-2 (aa 775-1122); made in house; host or cells: insect cells
T3 sequence (Q02763 775-1122): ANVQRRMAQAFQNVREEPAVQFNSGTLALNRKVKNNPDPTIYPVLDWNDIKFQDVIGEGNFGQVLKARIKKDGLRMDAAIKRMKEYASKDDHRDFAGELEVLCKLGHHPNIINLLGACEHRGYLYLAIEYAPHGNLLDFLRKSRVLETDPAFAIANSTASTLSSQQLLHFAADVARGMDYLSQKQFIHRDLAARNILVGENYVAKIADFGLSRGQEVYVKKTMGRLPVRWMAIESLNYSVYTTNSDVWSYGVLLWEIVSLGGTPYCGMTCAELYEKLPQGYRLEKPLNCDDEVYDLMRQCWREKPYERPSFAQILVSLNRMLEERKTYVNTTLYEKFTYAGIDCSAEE
In words: TIE-2 spectrophotometric assay. The class given is biochemical. As to conditions: read-out: % Inhibition Tie2-P, compound tested at 10 µM. The essentials:
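Human phosphorylated Tie-2 kinase activity was measured spectrophotometrically by coupling ADP formation, from phosphoryl transfer to poly(Glu4 Tyr), to NADH oxidation via pyruvate kinase and lactate dehydrogenase. Absorbance loss at 340 nm was read on a Beckman DU650. Reactions held 1 mM phosphoenolpyruvate, 0.24 mM NADH, 40 mM MgCl2, 5 mM DTT, 0.5 mM ATP, and 15 units/mL each of PK and LDH in 100 mM HEPES, pH 7.5.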

Another series has as its target T4, human FAK (FAKcd409) (Homo sapiens, UniProt Q05397, P410T).
T4 construct: comprises residues methionine 409 to glutamate 689; made in house; host or cells: baculovirus vector expression system (insect cells)
In words: FAK fluorescence polarization assay. As to conditions: for inhibition at 10 µM: read-out: % Inhibition FAK, compound tested at 10 µM. The class given is biochemical. On the procedure: FAK Construct for Assay. The catalytic domain of human FAK (FAKcd409) was expressed using the baculovirus vector expression system. […] The protein was purified using classical chromatography techniques.
FAK HTS utilized the fluorescence polarization assay provided by LJL Biosystems. The kinase reaction contained: 100mM Hepes pH 7.5, 10mM MgCl2, 1mM DTT, 1mM ATP, and 1mg/ml poly Glu-Tyr (4: 1). The reaction is initiated by the addition of 5nM FAKcd409. The reaction is terminated by the addition of EDTA followed by addition of fluor-labelled peptide and anti-phosphotyrosine antibody, both provided by LJL Biosystems. Inhibition results are read on a Analyst (LJL) detector.

The target in the next series is CDK2/Cyclin A complex (Homo sapiens, UniProt P24941). In words: CDK2/Cyclin A assay ([32P]ATP incorporation into Rb fragment). In kind it is biochemical. As to conditions: Table 1; read-out: CDK2 * (Ki, cell in µM).
Another series relates to HCT-116. In words: HCT-116 cell assay (Table 2). The note with it: Homo sapiens. In kind it is cell-based.
In a further series the target is human FGF-R1 (Homo sapiens, UniProt P11362, C488A/C584S/L457V). In words: FGF-R spectrophotometric assay. The class given is biochemical. The procedure: The spectrophotometric assay was carried out as described above for VEGF-R2, except for the following changes in concentration: FGF-R = 50 nM, ATP = 2 mM, and poly(E4Y1) =15 mM.
human FGF-R1, sequence (P11362 456-766 L457V/C488A/C584S): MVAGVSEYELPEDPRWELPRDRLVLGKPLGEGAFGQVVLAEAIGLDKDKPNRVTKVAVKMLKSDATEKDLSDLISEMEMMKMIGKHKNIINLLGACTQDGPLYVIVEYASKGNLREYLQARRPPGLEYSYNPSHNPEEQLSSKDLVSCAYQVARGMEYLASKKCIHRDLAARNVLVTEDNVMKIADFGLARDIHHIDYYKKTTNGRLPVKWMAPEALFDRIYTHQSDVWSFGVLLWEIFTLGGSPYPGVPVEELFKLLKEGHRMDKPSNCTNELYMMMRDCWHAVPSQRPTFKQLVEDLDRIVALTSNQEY
The conditions of series [5]: mouse, in vivo, pH 2.3.
The target in the next series is T5, human CHK1 (FL-CHK1) (Homo sapiens, UniProt O14757).
T5 construct: C-terminally His-tagged full-length human CHK1 (FL-CHK1) was expressed using the baculovirus/insect cell system; made in house; host or cells: baculovirus/insect cell system
T5 sequence (O14757 1-476): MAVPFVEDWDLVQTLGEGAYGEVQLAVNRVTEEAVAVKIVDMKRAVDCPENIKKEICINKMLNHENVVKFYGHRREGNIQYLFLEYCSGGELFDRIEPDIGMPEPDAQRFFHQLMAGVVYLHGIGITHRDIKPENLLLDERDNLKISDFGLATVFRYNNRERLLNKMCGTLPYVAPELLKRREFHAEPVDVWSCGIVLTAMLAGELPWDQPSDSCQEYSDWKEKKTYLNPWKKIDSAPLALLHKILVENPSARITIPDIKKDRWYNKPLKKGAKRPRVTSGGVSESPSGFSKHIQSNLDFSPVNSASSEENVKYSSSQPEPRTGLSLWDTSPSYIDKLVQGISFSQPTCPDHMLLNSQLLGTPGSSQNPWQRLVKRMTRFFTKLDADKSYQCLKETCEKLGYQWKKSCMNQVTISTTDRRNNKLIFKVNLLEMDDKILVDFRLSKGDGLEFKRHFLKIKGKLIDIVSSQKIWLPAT
In words: CHK1 coupled spectrophotometric assay. The class given is biochemical. A digest of the protocol: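 His-tagged full-length human CHK1 from baculovirus/insect cells, 10 nM, phosphorylating Syntide-2. ADP formation coupled via PK/LDH with PEP to NADH oxidation, followed as absorbance decrease at 340 nm. Ki from initial rates at varying compound concentrations.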

Series [6] concerns the target T1, unphosphorylated VEGF-R2Δ50. In words: biochemical. The note with it: read-out: FLVK* (% inhibition).
For series [7], the target named is T2, CDK4/Cyclin D3 complex. In words: biochemical.
Series [8] deals with T6, truncated catalytic subunit (gamma subunit) of phosphorylase kinase (amino acids 1-298) (Oryctolagus cuniculus, UniProt P00518).
T6 construct: (gamma subunit) of phosphorylase kinase (amino acids 1-298); made in house
T6 sequence (P00518 2-299 limits assumed): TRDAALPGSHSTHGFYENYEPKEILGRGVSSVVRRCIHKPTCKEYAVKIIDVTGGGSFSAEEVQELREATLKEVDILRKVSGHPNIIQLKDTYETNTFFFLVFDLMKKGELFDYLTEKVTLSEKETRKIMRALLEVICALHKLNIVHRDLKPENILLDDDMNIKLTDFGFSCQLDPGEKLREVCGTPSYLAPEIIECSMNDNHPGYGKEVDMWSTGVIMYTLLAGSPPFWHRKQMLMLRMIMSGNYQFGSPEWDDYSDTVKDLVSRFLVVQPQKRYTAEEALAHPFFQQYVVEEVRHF
In words: Phosphorylase kinase assay. The note with it: 10 µM of compound; phosphoryl transfer from ATP to phosphorylase b. In kind it is biochemical.
Procedure: In the assay, the purified catalytic subunit is used to phosphorylate phosphorylase b using radiolabled ATP. Briefly, 1.5 mg/ml of phosphorylase b is incubated with 10 nM phosphorylase kinase in 10 mM MgCl2, 50 mM Hepes pH 7.4, at 37 °C. […] The reaction was terminated and proteins were precipitated by the addition of TCA to 10% final concentration. […] The filter plate was then extensively washed with 20% TCA, and dried. Scintilation fluid was then added to the plate and incorporated radiolabel was counted on a Wallac microbeta counter.

For series [9], the target named is phosphorylated VEGF-R2Δ50 (Homo sapiens, UniProt P35968, DEL940-989/E990V). In words: biochemical. As to conditions: read-out: FLVK -P** (% inhibition).
phosphorylated VEGF-R2Δ50, sequence (P35968 with tags, fused parts or gaps DEL940-989/E990V limits assumed): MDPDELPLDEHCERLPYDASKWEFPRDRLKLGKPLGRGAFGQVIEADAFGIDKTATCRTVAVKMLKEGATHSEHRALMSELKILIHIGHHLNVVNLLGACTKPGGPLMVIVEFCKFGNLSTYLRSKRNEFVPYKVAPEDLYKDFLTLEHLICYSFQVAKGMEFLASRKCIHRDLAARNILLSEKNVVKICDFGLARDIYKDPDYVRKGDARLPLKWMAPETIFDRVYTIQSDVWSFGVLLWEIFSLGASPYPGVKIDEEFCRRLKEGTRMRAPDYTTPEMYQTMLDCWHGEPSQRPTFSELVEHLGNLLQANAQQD
The next series can be described thus: in vivo. As to conditions: mouse, plasma, pH 2.3.
A short description of series [10]: Isomer stability under assay conditions. As to conditions: Z-isomer, isolated pure. In kind it is physicochemical. The procedure:
Reference Example 33(h) was prepared in the same reaction as Reference Example 33(d). […] Found: C (66.36), H (4.08), N (11.49), S (6.55).

[11] abbreviates: read-out: CDK4 * (Ki, cell in µM), Table 1.
Where [12] appears, read: Table 1, compound concentration 1 µM, read-out: Lck-P* (% inhibition).
Setting [13] is: Table 1, compound concentration 1 µM.

The term IC50 denotes the concentration needed to halve the response being measured. As usually defined, the Ki is a dissociation constant, usually derived from enzyme kinetics or from competition with a known ligand. A word on the inhibition: it is the relative decrease from the control value, in per cent. For orientation: AUC means concentration integrated over time. Read a high AUC as more exposure.

T1 sequence (P35968 with tags, fused parts or gaps DEL940-989/E990V limits assumed): as above
T2 sequence (P11802 whole entry): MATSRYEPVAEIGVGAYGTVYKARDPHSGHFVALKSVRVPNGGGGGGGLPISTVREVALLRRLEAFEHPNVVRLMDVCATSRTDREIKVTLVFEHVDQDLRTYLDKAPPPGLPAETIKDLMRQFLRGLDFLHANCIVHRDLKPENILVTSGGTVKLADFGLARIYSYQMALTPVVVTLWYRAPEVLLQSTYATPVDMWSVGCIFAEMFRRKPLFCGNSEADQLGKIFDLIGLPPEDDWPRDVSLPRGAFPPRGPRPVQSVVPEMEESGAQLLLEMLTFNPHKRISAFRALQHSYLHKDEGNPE
T2 sequence (P30281 whole entry partner): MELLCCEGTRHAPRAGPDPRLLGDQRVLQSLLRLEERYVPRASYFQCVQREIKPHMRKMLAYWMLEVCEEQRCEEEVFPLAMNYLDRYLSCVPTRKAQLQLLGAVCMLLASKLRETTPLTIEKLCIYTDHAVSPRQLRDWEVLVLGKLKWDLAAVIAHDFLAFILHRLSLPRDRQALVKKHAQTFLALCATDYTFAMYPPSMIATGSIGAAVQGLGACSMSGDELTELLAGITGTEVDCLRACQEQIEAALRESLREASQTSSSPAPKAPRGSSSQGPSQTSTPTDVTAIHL
T4 sequence (Q05397 409-689 P410T): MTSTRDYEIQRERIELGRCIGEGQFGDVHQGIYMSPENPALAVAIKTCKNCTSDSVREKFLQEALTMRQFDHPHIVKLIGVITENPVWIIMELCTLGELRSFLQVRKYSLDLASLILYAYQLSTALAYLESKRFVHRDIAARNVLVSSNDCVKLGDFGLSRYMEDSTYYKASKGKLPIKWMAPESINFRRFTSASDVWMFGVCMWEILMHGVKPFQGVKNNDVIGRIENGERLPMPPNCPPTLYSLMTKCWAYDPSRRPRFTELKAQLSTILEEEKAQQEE
LCK tyrosine kinase, sequence (P06239 223-509 P223M/C224D): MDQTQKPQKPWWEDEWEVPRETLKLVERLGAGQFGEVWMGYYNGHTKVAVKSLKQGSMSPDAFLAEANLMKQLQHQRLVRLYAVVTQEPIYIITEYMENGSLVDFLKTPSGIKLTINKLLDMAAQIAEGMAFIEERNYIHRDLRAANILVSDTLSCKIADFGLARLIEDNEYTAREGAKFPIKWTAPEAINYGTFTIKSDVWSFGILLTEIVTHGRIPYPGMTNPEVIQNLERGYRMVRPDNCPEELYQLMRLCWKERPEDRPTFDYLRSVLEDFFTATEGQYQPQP

On to “6-[2-((4-Aminobenzyl)methylcarbamoyl)phenylsulfanyl]-3-E-[2-(pyridin-2-yl)ethenyl]-1H-indazole [Reference Example 35(I)]”, for which the “% remain (HLM, 2 h)” value in “in vitro” is reported as 5%. Further, the “FLVK ** (% inhibition)” value in series [1] (listed as 35(l), 0.05 µM) was 100% and 99%.

Regarding `C(=C\c1n[nH]c2cc(Oc3ccccc3)ccc12)/c1ccccc1` [8(a), 3-(E-styryl)-6-phenoxy-1H-indazole], in series [2] (Homo sapiens, HUVEC), the half-maximal inhibitory concentration (IC50) is above 1000 nM. The Ki at CDK4/Cyclin D3 complex [3] (setting [11]) and on CDK2/Cyclin A complex was above 100 µM each time. The inhibition at 1 µM on LCK tyrosine kinase (setting [12]) came to 43%. The values for the inhibition at 10 µM (in [4]; on human FAK (FAKcd409)) were 55% and 3%, respectively.

Turning to `C(=C\c1n[nH]c2cc(Sc3ccccc3)ccc12)/c1ccccc1` [8(c), 3-(E-styryl)-6-phenylsulfanyl-1H-indazole], the IC50 in [2] (Homo sapiens, HUVEC, Table 1) is 280 nM. The inhibitory constant (Ki) at CDK4/Cyclin D3 complex [3] (setting [11]) and on CDK2/Cyclin A complex was above 100 µM each time. Further, on LCK tyrosine kinase (setting [12]), the inhibition at 1 µM was 34%. Moreover, the inhibition at 10 µM in series [4] is 31%; on human FAK (FAKcd409), 15%.

On to `Oc1ccc(-c2ccc3c(-c4nc5ccccc5[nH]4)n[nH]c3c2)c(Oc2ccccc2)c1` [24(g), 3-1H-Benzoimidazol-2-yl-6-(2-phenoxy-4-hydroxyphenyl)-1H-indazole], for which, in the series on HCT-116, the IC50 is above 5000 nM.

With `NNC(=O)c1ccccc1Sc1ccc2c(C=Cc3ccccn3)n[nH]c2c1` [35(il)], the “FLVK ** (% inhibition)” value in series [1] was found to be 44%.

For `O=C(c1cccc(NC(=O)c2ccccn2)c1)c1ccc2c(/C=C/c3ccccn3)n[nH]c2c1` [41 (aa)], in the series “in vitro”, the “% remain (HLM, 2 h)” value is recorded as 100%. Moreover, in series [2] (Table 1), the IC50 worked out at 1 nM. Moreover, the “FGF-P* (% inhibition)” value on human FGF-R1 (setting [13]) worked out at 37%. The “Lck-P* (% inhibition)” value at LCK tyrosine kinase (setting [13]) amounted to 49%. Besides, the AUCleast in series [5] (ip, 25 mg/kg) was determined as 6659 ng·h/mL; in series [5] (po, 50 mg/kg), 289 ng·h/mL. Moreover, the T1/2 is 2.1 h in series [5] (ip, 25 mg/kg) and 0.9 h in series [5] (po, 50 mg/kg). The “Cmin (7 hr conc.)” value in series [5] (po, 50 mg/kg, 7 h) is 5 ng/mL. Besides, the inhibition constant (Ki) in series [1] amounted to 0.11 nM.

With `CCn1nc(C)cc1C(=O)Nc1cc(C(=O)c2ccc3c(/C=C/c4ccccn4)n[nH]c3c2)c(C)cc1C` [41(11)], the “% remain (HLM, 2 h)” value in the series “in vitro” is 85%. At human FGF-R1 (Table 1, read-out: FGF-P* (Ki)), the Ki was 11 nM. Moreover, the “Lck-P* (% inhibition)” value at LCK tyrosine kinase (setting [13]) came out at 18%. Moreover, the “FLVK ** (% inhibition)” value in series [1] is given as 57%.

Take `O=C(Nc1cccc(C(=O)c2ccc3c(/C=N/n4cnnc4)n[nH]c3c2)c1)c1ccccc1` [Example 42(e), 6-(3-benzamidobenzoyl)-3-E-[N-(4H-1,2,4-triazol-4-yl)iminomethyl]-1H-indazole]: in series [1], the inhibition constant Ki came out at 1.1 nM.

For the compound `CCOCc1cc(O)c(OC)cc1-c1ccc2c(-c3nc4ccccc4[nH]3)n[nH]c2c1` [Reference Example 24(l), 3-1H-Benzoimidazol-2-yl-6-(2-(ethoxymethyl)-5-methoxy-4-hydroxy-phenyl)-1H-indazole], the inhibitory constant (Ki) amounted to 0.013 µM on CDK4/Cyclin D3 complex [3] (read-out: CDK4* (Ki), Table 2) and 0.071 µM on CDK4/Cyclin D3 complex [3] (read-out: CDK4* (Ki), Table 2, listed as 24(1)). In addition, the inhibition at 20 µM at human CHK1 (FL-CHK1) (read-out: CHK1* (% inhibition @ 20 µM)) was determined as 62%.

Consider `CNC(=O)c1ccc2[nH]c(-c3n[nH]c4cc(-c5ccc(O)cc5OC)ccc34)nc2c1` [Reference Example 25(g), 3-(5-methylcarbamoyl-1H-benzoimidazol-2-yl)-6-(2-methoxy-4-hydroxyphenyl)-1H-indazole], for which the inhibition at 1 µM was 82% on human FGF-R1 (read-out: FGF* (% inhibition)), 76% at LCK tyrosine kinase (read-out: Lck* (% inhibition)) and 21% at human CHK1 (FL-CHK1) (read-out: CHK1* (% inhibition)). In the series on HCT-116, half-maximal inhibition (IC50) required 2000 nM.

For the compound `COc1cc(O)ccc1-c1ccc2c(-c3nc4ccc(S(N)(=O)=O)cc4[nH]3)n[nH]c2c1` [Reference Example 25(i), 3-(5-Aminosulfonyl-1H-benzoimidaxol-2-yl)-6-(2-methoxy-4-hydroxy-phenyl)-1H-indazole], in the series on HCT-116, the half-inhibitory concentration (IC50) is above 5000 nM.

`C(=C\c1n[nH]c2cc(-c3ccccc3)ccc12)/c1ccccc1` [Reference Example 27(a), 6-phenyl-3-E-styryl-1H-indazole]: the inhibition at 1 µM in [6] is 71%. The inhibition at 5 µM at CDK4/Cyclin D3 complex [7] (read-out: CDK4* (% inhibition @ 5 µM)) was determined as 28%. The compound also returned an inhibition at 10 µM in series [8] of 37%.

`CNC(=O)c1ccccc1Sc1ccc2c(/C=C/c3ccccn3)n[nH]c2c1` [Reference Example 33(a), 6-[2-(methylcarbamoyl)phenylsulfanyl]-3-E[2-(pyridin-2-yl)ethenyl]indazole]: in “in vitro”, the “% remain (HLM, 2 h)” value was determined as 29%. In addition, the inhibition at 1 µM on CDK4/Cyclin D3 complex [7] (read-out: CDK4 * (% inhibition)) was determined as 7%; at human FAK (FAKcd409) (read-out: % Inhibition @ 1 µM FAK), 12%. For the same compound, the inhibition at 0.05 µM in series [9] came to 42%. For the same compound, the exposure (AUC) in “in vivo” (ip, 25 mg/kg) is 13800 ng·h/mL; in “in vivo” (po, 50 mg/kg), 19100 ng·h/mL.

Regarding `O=C(Nc1cccc(Cl)c1)c1ccccc1Sc1ccc2c(/C=C\c3ccccn3)n[nH]c2c1` [Reference Example 33(h), 6-[2-(3-chlorophenylcarbamoyl)phenysulfanyl]-3-Z-[2-(pyridin-2-yl)ethenyl]-1H-indazole], in series [10], the “isomerization under assay conditions” value is reported as “found to isomerize to Reference Example 33(d) under assay conditions”.
